Reference: ChEMBL document CHEMBL1795251, “Structure-based design of thienobenzoxepin inhibitors of PI3-kinase” (Bioorg Med Chem Lett, 2011)
pEC50, pIC50, pKi: −log10 of the molar value. The source made the active and inactive calls. The rule behind the calls is not given here.

Assays:
[1] = target: Phosphatidylinositol 4,5-bisphosphate 3-kinase catalytic subunit alpha isoform (Homo sapiens, UniProt P42336)
[2] = test system: Hepatocyte; assay: Metabolic stability in cryopreserved human hepatocytes assessed as N-(2-chlorophenyl)-N-methyl-8-(1H-pyrazol-4-yl)-4,5-dihydrobenzo[b]thieno[2,3-d]oxepine-2-carboxamide formation; type: ADME, cell-based
[3] = in vivo; conditions: rat, plasma, iv, 1 mg/kg
[4] = in vivo; conditions: mouse, plasma, iv, 1 mg/kg
[5] = Plasma clearance in dog at 2 mg/kg; type: ADME, organism-based, Canis lupus familiaris; parameters: dose 2 mg/kg
[6] = test system: Mus musculus; assay: Inhibition of PI3K pathway in nude mouse xenografted with HER2 expressing MCF7 assessed as reduction in phosphorylated PRAS40 levels at 50 mg/kg, po administered as single dose after 6 hrs relative to control; type: functional, organism-based; parameters: dose 50 mg/kg
[7] = AUC in mouse at 100 mg/kg; type: ADME, organism-based; parameters: dose 100 mg/kg; conditions: plasma
[8] = AUC in rat at 100 mg/kg; type: ADME, organism-based; parameters: dose 100 mg/kg; conditions: plasma
[9] = test system: MCF7; assay: Antiproliferative activity against human MCF7 cells; type: functional, cell-based
[10] = Plasma clearance in mouse at 100 mg/kg; type: ADME, organism-based; parameters: dose 100 mg/kg
[11] = test system: Mus musculus; assay: Inhibition of PI3K pathway in nude mouse xenografted with HER2 expressing MCF7 assessed as reduction in phosphorylated AKT levels at 50 mg/kg, po administered as single dose after 6 hrs relative to control; type: functional, organism-based; parameters: dose 50 mg/kg
[12] = Plasma protein binding in rat; type: ADME, cell-free; conditions: read-out: PPB (converted)
[13] = Oral bioavailability in rat at 100 mg/kg; type: ADME, organism-based; conditions: in vivo
[14] = AUC in dog at 2 mg/kg; type: ADME, organism-based, Canis lupus familiaris; parameters: dose 2 mg/kg; conditions: plasma
[15] = Plasma protein binding in dog; type: ADME, cell-free, Canis lupus familiaris; conditions: read-out: PPB (converted)
[16] = in vivo; conditions: nude, mouse, tumor, po, 50 mg/kg
[17] = Plasma clearance in cynomolgus monkey; type: ADME, organism-based, Macaca fascicularis
[18] = target: Serine/threonine-protein kinase mTOR (Homo sapiens, UniProt P42345); assay: Inhibition of mTOR
[19] = test system: PC-3; assay: Antiproliferative activity against human PC3 cells; type: functional, cell-based
[20] = in vivo; conditions: nude, mouse, plasma, po, 50 mg/kg
[21] = Oral bioavailability in mouse at 100 mg/kg; type: ADME, organism-based; conditions: in vivo
[22] = Plasma protein binding in cynomolgus monkey; type: ADME, cell-free, Macaca fascicularis; conditions: read-out: PPB
[23] = Plasma clearance in rat at 100 mg/kg; type: ADME, organism-based; parameters: dose 100 mg/kg
[24] = Oral bioavailability in dog at 2 mg/kg; type: ADME, organism-based, Canis lupus familiaris; conditions: in vivo
[25] = target: DNA-dependent protein kinase catalytic subunit (Homo sapiens, UniProt P78527); assay: Inhibition of DNA-PK
DNA-dependent protein kinase catalytic subunit, sequence (P78527 whole entry): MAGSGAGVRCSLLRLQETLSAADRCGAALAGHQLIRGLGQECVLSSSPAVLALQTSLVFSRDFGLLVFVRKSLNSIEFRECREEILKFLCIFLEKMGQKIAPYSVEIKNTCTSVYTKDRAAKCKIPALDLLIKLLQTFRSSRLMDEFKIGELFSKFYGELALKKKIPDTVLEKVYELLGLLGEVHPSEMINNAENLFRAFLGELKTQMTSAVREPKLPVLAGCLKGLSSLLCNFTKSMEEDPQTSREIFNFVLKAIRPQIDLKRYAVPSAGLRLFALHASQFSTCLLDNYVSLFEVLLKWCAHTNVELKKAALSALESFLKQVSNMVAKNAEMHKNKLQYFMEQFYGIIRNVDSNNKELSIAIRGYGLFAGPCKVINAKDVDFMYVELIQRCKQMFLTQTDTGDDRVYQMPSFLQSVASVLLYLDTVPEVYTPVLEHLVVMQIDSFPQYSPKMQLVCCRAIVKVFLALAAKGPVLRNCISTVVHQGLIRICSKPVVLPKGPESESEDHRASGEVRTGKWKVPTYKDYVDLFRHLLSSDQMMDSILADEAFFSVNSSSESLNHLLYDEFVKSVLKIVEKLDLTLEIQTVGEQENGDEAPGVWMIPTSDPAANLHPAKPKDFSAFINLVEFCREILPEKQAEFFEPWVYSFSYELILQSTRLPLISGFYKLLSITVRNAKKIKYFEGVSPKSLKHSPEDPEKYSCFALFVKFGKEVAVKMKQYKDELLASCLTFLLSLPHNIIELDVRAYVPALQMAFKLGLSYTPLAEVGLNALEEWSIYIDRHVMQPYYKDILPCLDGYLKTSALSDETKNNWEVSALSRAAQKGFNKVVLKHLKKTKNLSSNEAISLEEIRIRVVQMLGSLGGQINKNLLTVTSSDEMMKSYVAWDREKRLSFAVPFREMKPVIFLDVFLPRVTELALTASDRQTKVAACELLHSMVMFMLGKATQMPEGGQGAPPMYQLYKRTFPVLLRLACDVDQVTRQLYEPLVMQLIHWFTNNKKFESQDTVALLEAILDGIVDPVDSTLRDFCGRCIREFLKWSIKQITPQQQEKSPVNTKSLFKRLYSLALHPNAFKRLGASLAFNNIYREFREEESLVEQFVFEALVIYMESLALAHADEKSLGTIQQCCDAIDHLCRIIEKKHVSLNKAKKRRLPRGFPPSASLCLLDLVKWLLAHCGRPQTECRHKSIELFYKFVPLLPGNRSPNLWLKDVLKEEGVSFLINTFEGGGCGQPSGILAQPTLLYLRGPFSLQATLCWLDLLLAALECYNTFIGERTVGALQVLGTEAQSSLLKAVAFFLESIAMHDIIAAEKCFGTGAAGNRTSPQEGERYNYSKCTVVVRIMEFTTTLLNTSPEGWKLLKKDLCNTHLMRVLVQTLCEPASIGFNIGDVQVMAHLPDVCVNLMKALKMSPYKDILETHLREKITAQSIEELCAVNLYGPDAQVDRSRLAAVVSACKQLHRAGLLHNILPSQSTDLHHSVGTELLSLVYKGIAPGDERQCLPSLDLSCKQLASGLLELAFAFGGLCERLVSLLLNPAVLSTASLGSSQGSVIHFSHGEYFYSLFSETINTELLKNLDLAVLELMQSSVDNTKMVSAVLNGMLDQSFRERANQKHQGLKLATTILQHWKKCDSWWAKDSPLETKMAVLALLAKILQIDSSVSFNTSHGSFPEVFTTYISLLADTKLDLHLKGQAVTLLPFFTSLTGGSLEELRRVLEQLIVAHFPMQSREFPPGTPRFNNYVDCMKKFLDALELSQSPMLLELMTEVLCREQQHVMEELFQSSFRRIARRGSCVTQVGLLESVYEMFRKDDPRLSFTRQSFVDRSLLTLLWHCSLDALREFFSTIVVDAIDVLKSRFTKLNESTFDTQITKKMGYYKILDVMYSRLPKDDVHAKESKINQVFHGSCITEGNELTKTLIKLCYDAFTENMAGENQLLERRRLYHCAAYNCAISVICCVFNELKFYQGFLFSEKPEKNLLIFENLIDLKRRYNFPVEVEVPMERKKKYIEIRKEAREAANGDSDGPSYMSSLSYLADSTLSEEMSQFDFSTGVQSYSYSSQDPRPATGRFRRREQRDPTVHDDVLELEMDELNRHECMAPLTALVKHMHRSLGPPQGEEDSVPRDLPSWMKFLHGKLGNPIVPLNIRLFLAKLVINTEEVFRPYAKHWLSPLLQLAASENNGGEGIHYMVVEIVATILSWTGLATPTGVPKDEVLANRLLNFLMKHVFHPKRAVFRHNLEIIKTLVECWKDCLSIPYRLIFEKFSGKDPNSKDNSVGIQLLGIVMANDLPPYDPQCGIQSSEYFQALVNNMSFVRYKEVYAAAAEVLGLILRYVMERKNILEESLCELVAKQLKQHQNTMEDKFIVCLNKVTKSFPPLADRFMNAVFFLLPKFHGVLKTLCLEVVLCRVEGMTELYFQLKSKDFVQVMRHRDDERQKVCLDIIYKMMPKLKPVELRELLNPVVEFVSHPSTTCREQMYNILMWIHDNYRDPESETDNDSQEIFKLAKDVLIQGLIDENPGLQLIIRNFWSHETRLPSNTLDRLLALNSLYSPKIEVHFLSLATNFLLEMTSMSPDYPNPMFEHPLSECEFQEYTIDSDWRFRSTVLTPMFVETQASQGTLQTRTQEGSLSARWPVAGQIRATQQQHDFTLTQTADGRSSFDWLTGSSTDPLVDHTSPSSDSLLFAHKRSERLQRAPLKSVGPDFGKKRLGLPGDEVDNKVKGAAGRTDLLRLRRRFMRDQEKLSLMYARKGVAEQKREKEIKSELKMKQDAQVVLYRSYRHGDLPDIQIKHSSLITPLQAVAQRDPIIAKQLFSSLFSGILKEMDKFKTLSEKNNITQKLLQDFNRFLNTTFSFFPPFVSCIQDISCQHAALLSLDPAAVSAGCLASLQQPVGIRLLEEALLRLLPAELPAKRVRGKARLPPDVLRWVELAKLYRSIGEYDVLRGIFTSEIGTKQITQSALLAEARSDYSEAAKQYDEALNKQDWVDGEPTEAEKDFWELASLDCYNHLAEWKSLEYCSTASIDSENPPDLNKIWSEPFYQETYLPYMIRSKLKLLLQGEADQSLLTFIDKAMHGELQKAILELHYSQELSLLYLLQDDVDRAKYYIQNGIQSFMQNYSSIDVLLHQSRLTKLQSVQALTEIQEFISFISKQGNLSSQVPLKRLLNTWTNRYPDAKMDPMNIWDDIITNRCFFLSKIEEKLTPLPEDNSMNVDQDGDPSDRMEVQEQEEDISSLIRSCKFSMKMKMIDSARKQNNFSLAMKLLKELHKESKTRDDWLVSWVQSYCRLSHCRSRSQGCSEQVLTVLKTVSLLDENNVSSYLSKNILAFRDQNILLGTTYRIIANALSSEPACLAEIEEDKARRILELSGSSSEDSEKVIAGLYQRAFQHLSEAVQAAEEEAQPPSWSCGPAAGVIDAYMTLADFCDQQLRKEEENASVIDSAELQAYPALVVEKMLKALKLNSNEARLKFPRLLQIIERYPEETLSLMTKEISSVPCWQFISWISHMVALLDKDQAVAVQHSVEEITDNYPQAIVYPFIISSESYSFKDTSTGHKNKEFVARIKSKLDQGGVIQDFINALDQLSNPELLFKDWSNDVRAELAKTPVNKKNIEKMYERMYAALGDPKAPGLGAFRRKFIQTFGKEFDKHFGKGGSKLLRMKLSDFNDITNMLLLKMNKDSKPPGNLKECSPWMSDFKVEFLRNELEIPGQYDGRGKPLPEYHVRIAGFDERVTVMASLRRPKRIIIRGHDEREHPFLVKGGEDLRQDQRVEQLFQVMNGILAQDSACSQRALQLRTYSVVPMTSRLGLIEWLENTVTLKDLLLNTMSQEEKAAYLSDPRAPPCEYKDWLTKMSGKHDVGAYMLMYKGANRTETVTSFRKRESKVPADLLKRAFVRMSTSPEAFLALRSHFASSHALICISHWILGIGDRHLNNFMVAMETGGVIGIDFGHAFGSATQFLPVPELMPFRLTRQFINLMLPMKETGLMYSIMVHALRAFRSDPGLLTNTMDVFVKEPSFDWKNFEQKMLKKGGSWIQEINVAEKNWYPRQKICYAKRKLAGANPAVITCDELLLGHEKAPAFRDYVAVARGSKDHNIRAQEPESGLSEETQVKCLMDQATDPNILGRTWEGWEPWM

[26] = in vivo; conditions: nude, mouse, tumor, po, 50 mg/kg; remark: listed apart in the source
[27] = Plasma protein binding in mouse; type: ADME, cell-free; conditions: read-out: PPB (converted)
[28] = Plasma protein binding in human; type: ADME, cell-free; conditions: read-out: PPB (converted)
[29] = in vivo; conditions: nude, mouse, plasma, po, 50 mg/kg; remark: listed apart in the source
[30] = test system: Mus musculus; assay: Inhibition of PI3K pathway in nude mouse xenografted with HER2 expressing MCF7 assessed as reduction in phosphorylated S6RP levels at 50 mg/kg, po administered as single dose after 6 hrs relative to control; type: functional, organism-based; parameters: dose 50 mg/kg

Phosphatidylinositol 4,5-bisphosphate 3-kinase catalytic subunit alpha isoform, sequence (P42336 whole entry, canonical isoform): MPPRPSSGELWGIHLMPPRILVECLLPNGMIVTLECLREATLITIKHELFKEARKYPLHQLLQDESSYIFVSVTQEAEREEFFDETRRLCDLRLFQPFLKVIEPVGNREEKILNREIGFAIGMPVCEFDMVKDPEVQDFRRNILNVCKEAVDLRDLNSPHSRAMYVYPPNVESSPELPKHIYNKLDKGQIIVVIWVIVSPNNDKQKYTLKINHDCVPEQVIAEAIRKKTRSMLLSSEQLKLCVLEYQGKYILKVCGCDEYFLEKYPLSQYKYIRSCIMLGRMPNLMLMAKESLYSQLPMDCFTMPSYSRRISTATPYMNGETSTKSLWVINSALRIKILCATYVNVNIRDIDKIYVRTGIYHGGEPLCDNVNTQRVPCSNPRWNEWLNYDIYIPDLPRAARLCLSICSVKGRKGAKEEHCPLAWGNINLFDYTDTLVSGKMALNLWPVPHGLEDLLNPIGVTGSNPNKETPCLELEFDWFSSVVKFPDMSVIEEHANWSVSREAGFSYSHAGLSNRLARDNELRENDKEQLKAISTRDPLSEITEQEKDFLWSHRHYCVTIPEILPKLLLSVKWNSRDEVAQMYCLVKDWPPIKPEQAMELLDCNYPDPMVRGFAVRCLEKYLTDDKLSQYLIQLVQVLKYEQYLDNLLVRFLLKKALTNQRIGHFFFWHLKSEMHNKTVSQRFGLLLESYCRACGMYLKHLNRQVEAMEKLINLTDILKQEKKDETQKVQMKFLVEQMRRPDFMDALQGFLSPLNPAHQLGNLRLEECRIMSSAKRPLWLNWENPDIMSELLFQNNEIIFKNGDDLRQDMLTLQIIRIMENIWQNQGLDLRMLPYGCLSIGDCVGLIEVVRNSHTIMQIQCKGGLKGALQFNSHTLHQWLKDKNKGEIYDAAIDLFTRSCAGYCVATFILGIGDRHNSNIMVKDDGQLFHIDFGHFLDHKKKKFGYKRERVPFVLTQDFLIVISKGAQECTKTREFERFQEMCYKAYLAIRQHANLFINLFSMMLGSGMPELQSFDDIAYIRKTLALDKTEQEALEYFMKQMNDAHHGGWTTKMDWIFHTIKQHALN

CN(C(=O)c1cc2c(s1)-c1ccccc1OC2)c1ccc(F)cc1
pIC50 [1]: 6.00

CNC(=O)c1ccc2c(c1)OCCc1cc(C(=O)N(C)c3ccccc3Cl)sc1-2
Stability [2]: 5 µM

COC(=O)Nc1ccc2c(c1)OCCc1cc(C(=O)N(C)c3ccccc3Cl)sc1-2
clearance [3]: 44 mL/min/kg | pKi [1]: 8.82

CN(C(=O)c1cc2c(s1)-c1ccc(C(N)=O)cc1OCC2)c1ccccc1Cl
clearance [3]: 89 mL/min/kg | pKi [1]: 8.92

CN(C(=O)c1cc2c(s1)-c1ccc(-c3cn[nH]c3)cc1OCC2)c1ccccc1Cl
pKi [1]: 9.22

CN(C(=O)c1cc2c(s1)-c1ccccc1OCCC2)c1ccccc1Cl
pIC50 [1]: < 5.00

CC(C)CN(C)C(=O)c1cc2c(s1)-c1ccccc1OC2
pIC50 [1]: 4.77

CN(C(=O)c1cc2c(s1)-c1ccc(-c3cn[nH]c3)cc1OCC2)c1ccncc1Cl
pKi [1]: 7.19

Cc1ccccc1N(C)C(=O)c1cc2c(s1)-c1ccccc1OC2
pIC50 [1]: 6.16

CN(C(=O)c1cc2c(s1)-c1ccccc1OCC2)c1ccncc1Cl
clearance [3]: 23 mL/min/kg | pKi [1]: 6.33

CC(C)N(C)C(=O)c1cc2c(s1)-c1ccccc1OC2
pIC50 [1]: 5.28

COc1ccccc1N(C)C(=O)c1cc2c(s1)-c1ccccc1OC2
pIC50 [1]: 6.17

CNC(=O)c1ccc2c(c1)OCCc1cc(C(=O)N(C)c3cc(C(=O)N(C)C)ccc3Cl)sc1-2
clearance [4]: 55 mL/min/kg | clearance [3]: 66 mL/min/kg

CN(C(=O)c1cc2c(s1)-c1ccccc1OC2)c1ccccn1
pIC50 [1]: < 5.00

CN(C(=O)c1cc2c(s1)-c1ccc(C(=O)N3CCOCC3)cc1OCC2)c1ccccc1Cl
pKi [1]: 7.51

CN(C(=O)c1cc2c(s1)-c1ccccc1OC2)c1cccc(F)c1
pIC50 [1]: 6.00

CNC(=O)c1ccc2c(c1)OCCc1cc(C(=O)N(C)c3ccc(F)cc3Cl)sc1-2
clearance [4]: 182 mL/min/kg | clearance [3]: 153 mL/min/kg

CNC(=O)c1ccc(N(C)C(=O)c2cc3c(s2)-c2ccc(C(=O)NC)cc2OCC3)c(Cl)c1
clearance [4]: 24 mL/min/kg | clearance [3]: 28 mL/min/kg | pKi [1]: 8.60

CN(C(=O)c1cc2c(s1)-c1ccccc1OCC2)c1ccccc1Cl
clearance [3]: 60 mL/min/kg

CNC(=O)c1ccc2c(c1)OCCc1cc(C(=O)N(C)c3ccc(C(=O)N(C)C)cc3Cl)sc1-2
clearance [5]: 5 mL/min/kg | inhibition [6]: Active | AUC [7]: 330 µM·h | AUC [8]: 39 µM·h | pEC50 [9]: 6.59 | clearance [4]: 15 mL/min/kg | clearance [10]: 15 mL/min/kg | clearance [3]: 36 mL/min/kg | inhibition [11]: Active | fraction unbound [12]: 0.03 | bioavailability [13]: 50% | AUC [14]: 17 µM·h | fraction unbound [15]: 0.07 | concentration at 6 h [16]: 2.24 µM | clearance [17]: 10 mL/min/kg | pIC50 [18]: 6.28 | pEC50 [19]: 6.26 | concentration at 1 h [20]: 7.38 µM | bioavailability [21]: 28% | fraction unbound [22]: 0.09 | clearance [23]: 36 mL/min/kg | bioavailability [24]: 120% | pIC50 [25]: 8.22 | concentration at 1 h [26]: 1.08 µM | fraction unbound [27]: 0.02 | fraction unbound [28]: 0.03 | concentration at 6 h [29]: 11.1 µM | inhibition [30]: Active
